Assay results from US20170071976A1, “PHARMACEUTICAL SOLUTION HAVING ANTI-TUMOR EFFECT-ENHANCING AND TOXICITY-REDUCING EFFECT, AND PHARMACEUTICAL COMPOSITION COMPRISING SAME” (priority 2014, published 2017).

Columns and labels:
[1] = system: Ehrlich ascites tumor (EAC); assay: Survival of Ehrlich ascites tumor-bearing mice, intraperitoneal perfusion (lavage) with deuterium oxide and 5-FU; assay type: in vivo, ICR mice; details: i.p., 10 days; for MST: control 14.1 ± 1.9
Experimental: Studying 1: Efficacy of intraperitoneal perfusion (lavage) with deuterium oxide in combination with 5-fluorouracil on Ehrlich ascites tumor (EAC)-bearing mice.
Laboratory animal: 4 to 5 week-aged male ICR mice, provided by Shanghai SIPPR-BK Laboratory Animal Co. Ltd.
1. Modeling: EAC ascitic fluid was taken and adjusted to 1×10^7 cells/ml, which was inoculated into the peritoneal cavity of mice at 0.1 ml/mouse. 2. Grouping and dosing: the animals were randomized 3 days after inoculation, and meanwhile drugs were given to mice in each group, following the dosing scheme shown in Table 10.
In Table 10, “Sodium chloride deuterium oxide solution 0.1 ml/animal+5-FU 20 mg/kg” means that each mouse was given 0.1 ml sodium chloride deuterium oxide solution, in which 5-FU had been dissolved to make a dose of 20 mg/kg.
After the dosing, ascitic fluid was taken from 3 mice from each group, the volume of the ascitic fluid was measured, the number of tumor cells in the ascitic fluid was counted, and the rest of animals were continuously fed. Median survival time (MST) was recorded for animals in each group to evaluate the survival time for each group.
The comparison between the treatment group and the control group was expressed by T/C (%) which is calculated by the following equation: […]
T MST: MST of the treatment group; C MST: MST of the negative control group.
The evaluation criterion uses 125% as a cut-off threshold. When T/C %≧125%, effective, otherwise ineffective.
The mean value was expressed in X±SD. Inter-group analysis was statistically performed with t test. The results were statistically analyzed using SPSS (Statistical Package for the Social Science) 17.0.

[2] = system: human colon cancer HCT-116 cells inoculated into the peritoneal cavity; assay: Survival of nude mice bearing HCT-116 cells, 42° C. intraperitoneal retention lavage with hydroxyethyl starch or sodium chloride deuterium oxide solution and 5-FU; assay type: in vivo; details: 42° C. NS 10 ml/kg + 5-FU 20 mg/kg, i.p. lavage x 5
Experimental: Comparison of survival time of nude mice bearing human colon cancer HCT-116 cells upon 42° C. hyperthermic intraperitoneal retention lavage using a hydroxyethyl starch deuterium oxide solution in combination with 5-FU and using a sodium chloride deuterium oxide solution in combination with 5-FU.
Animal: 4 to 5 week-aged male nude mice, provided by Shanghai SIPPR-BK Laboratory Animal Co. Ltd.
Cell lines: human colon cancer cell line HCT-116 was provided by NANJING KEYGEN BIOTECH. CO., LTD.
Modeling: 0.2 ml suspension of HCT-116 cancer cells containing 1×10^7 cells/ml (2×10^6 cells in total) was inoculated into the peritoneal cavity of the nude mice.
Grouping and dosing: the mouse model was established 7 to 8 days after inoculation into the nude mice, and the mice were randomized with 18 animals/group.
5-FU was separately dissolved in the hydroxyethyl starch deuterium oxide solution at 42° C., and in the sodium chloride deuterium oxide solution at 42° C., for intraperitoneal lavage of tumor-bearing mice.
1). […]
The peritoneal cavity of nude mice was lavaged with the above compositions which were retained for 20 min in the peritoneal cavity after being introduced, which was performed once a day for 5 successive times. The body weight and abdomen circumference of the nude mice were measured on each day before administration of the drugs, and the daily living status of mice was observed. […]

`O=c1[nH]cc(F)c(=O)[nH]1` [Example 5-FU, 5-fluorouracil] was tested, and the “T/C(%)” value ([1]; 5-FU 20 mg/kg in NS) was 154.6%, the “MST” value ([1]; 5-FU 20 mg/kg in NS) was 21.8 ± 2.9 days and the “T/C(%)” value ([1]; 5-FU 30 mg/kg in NS) was 158.1%. The “MST” value ([1]; 5-FU 30 mg/kg in NS) was 22.3 ± 4.9 days, the “T/C(%)” value [2] was 138.7% and the “MST” value ([2]; control 12.4 ± 2.9) was 17.2 ± 2.2 days.
